# Measurements taken from US7566737B2 (Genfit, priority 2002, dated 2009).
# Key:
# [1] = system: LDL; assay: Protection against LDL oxidation by copper (conjugated diene formation); format: biochemical; conditions: for antioxidant properties on LDL oxidation by copper (in words): FIGS. 1-1 to 1-14; for lag phase of conjugated diene formation / rate of conjugated diene formation: 10^−4M
# Description: LDL oxidation is an important alteration and plays a predominant role in the establishment and development of atherosclerosis (Jurgens G et al., 1987). […] Unless otherwise indicated, the reagents were from Sigma (St Quentin, France). LDL were prepared according to the method described by (Havel R J et al., 1955). The solutions of test compounds were prepared at 10^−2 M concentration in bicarbonate buffer (pH 9) and diluted in PBS to obtain final concentrations ranging from 0.1 to 100 μM for a total ethanol concentration of […]. Prior to oxidation, EDTA was removed from the LDL preparation by dialysis. Oxidation then took place at 30° C. by addition of 100 μl of 16.6 μM CuSO4 solution to 160 μL of LDL (125 μg protein/ml) and 20 μl of a test compound solution. The formation of dienes, the species under observation, was followed by measuring optical density at 234 nm in the samples treated with the compounds but in the presence or absence of copper. Optical density at 234 nm was measured every 10 minutes for 8 hours in a thermostated spectrophotometer (Tecan Ultra 380). The compounds were considered to have antioxidant activity when they induced a longer lag phase and reduced the rate of oxidation and the amount of dienes formed in comparison with the control sample.
# [2] = target: T1, human PPARα (Homo sapiens, UniProt Q07869); assay: PPARα/Gal4 transactivation system; format: cell-based; conditions: for maximum induction factor: at the 10 or 1 μm concentrations
# T1 construct: expressed in transfected cells; host or cells: RK13 or COS-7
# T1 sequence (Q07869 239-466 limits assumed): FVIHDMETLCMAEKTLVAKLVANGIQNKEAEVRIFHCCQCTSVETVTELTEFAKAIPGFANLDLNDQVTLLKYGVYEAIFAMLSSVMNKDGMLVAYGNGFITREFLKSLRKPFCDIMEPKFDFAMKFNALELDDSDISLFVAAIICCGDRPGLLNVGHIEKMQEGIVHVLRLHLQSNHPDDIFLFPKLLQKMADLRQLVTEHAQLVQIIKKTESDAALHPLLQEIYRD
# Description: PPAR activation was tested in vitro in RK13 or COS-7 fibroblast cell lines by measuring the transcriptional activity of chimeras composed of the DNA binding domain of the yeast Gal4 transcription factor and the ligand binding domain of the different PPARs. These latter results were then confirmed in cell lines according to the following protocols.
# Culture protocols: RK13 were from ECACC (Porton Down, UK) and were grown in DMEM medium supplemented with 10% (V/V) fetal calf serum, 100 U/ml penicillin (Gibco, Paisley, UK) and 2 mM L-glutamine (Gibco, Paisley, UK). COS-7 cells were from ATCC and were grown in DMEM medium supplemented with 10% (V/V) fetal calf serum, 1% penicillin/streptomycine (Biochrom, AG), 1% of amino acids (Gibco) and 1% sodium pyruvate (Gibco).
# The culture medium was changed every two days. Cells were kept at 37° C. in a humidified 95% air/5% CO2 atmosphere.
# Description of plasmids used for transfection: The plasmids Gal4(RE)_TkpGL3, pGal4-hPPARα, pGal4-hPPARγ, pGal4-hPPARδ and pGal4-φ have been described in the literature (Raspe E et al., 1999). The pGal4-hPPARα, pGal4-hPPARγ and pGal4-hPPARδ constructs were obtained by cloning into the pGal4-φ vector PCR-amplified DNA fragments corresponding to the DEF domains of the human PPARs nuclear receptors.
# Transfection of RK13: RK13 cells were seeded in 24-well culture dishes at 5×10^4 cells/well and transfected for 2 hours with the reporter plasmid Gal4(RE)_TkpGL3 (50 ng/well), the expression vectors pGal4-φ, pGal4-hPPARα, pGal4-hPPARγ and pGal-hPPARδ (100 ng/well) and the transfection efficiency control vector pRL-CMV (1 ng/well) according to the previously described protocol (Raspe E, Madsen L, Lefebvre A M, Leitersdorf I, Gelman L, Peinado-Onsurbe J, Dallongeville J, Fruchart J C, Berge R and Staels B, 1999), then incubated for 36 hours with the test compounds. RK13 cells were incubated with the different compounds at concentrations of 10, 30 and 100 μM or 1, 10 and 100 μM for 24 hours. At the end of the experiment, the cells were lysed (Gibco, Paisley, UK) and luciferase activity was determined with a Dual-Luciferase™ Reporter Assay System kit (Promega, Madison, Wis., USA) according to the supplier's instructions. The protein content of the cell extracts was then measured with the Bio-Rad Protein Assay (Bio-Rad, Munich, Germany) as directed by the supplier.
# Transfection of COS7: Cells in suspension are transfected, in the presence of 10% (V/V) fetal calf serum, with 150 ng of DNA per well with a pGal4-PPAR/Gal4(RE)_TkpGL3 ratio of 1/10. Cells are then seeded in 96 well plates (4×10^4 cells/well) and incubated for 24 hours at 37° C. Activation with compounds is performed on 24 hours at 37° C. in culture medium without serum. At the end of the activation period, cells are lysed and luciferase activity is determined, using the Steady Glow Luciferase Kit (Promega), according to the supplier's instructions.
# [3] = system: hApoE2 Knock-in transgenic mice; assay: Effects on triglycerides and cholesterol metabolism in vivo; design: species or system mouse
# Description: Treatment of animals: hApoE2 knock-in transgenic mice were kept on a 12-hour light/dark cycle at a constant temperature of 20±3° C. After a 1 week acclimation, mice were separated in groups of 6 animals selected such that the distribution of their body weight and plasmatic lipid levels determined before the experiment were uniform. The test compounds were suspended in carboxymethylcellulose and administered by intragastric gavage at the indicated doses, once a day for 7 or 8 days. Animals had access to food and water ad libitum. At the end of the experiment the animals were weighed and sacrificed under anesthesia. Blood was collected on EDTA. Plasma was prepared by centrifugation at 3000 rpm for 20 minutes. Organs were harvested, frozen in liquid nitrogen and stored at −80° C. for subsequent analysis.
# Measurement of serum lipids: Serum lipid concentrations (total cholesterol and triglycerides) were determined by a colorimetric assay (Boehringer, Mannheim, Germany) according to the supplier's instructions.
# [4] = system: Human normal primary fibroblasts; assay: Antioxidant properties on cell cultures (carboxy-H2DCFDA fluorescence, AAPH stress), fibroblasts; format: cell-based; conditions: compounds at 25 μM for 24 h, AAPH 750 μM
# Description: (§1) The reduction in the intensity of the emitted fluorescence signal was determined in cells treated with the compounds in the following manner.
# (§2) Prior to stress the cells with an oxidative agent such as AAPH (CAS number 2997-92-4), cells are incubated with compounds of interest at 25 μM for 24 h. Then the culture medium is discarded and cells are rinsed two times with PBS. Cells are then incubated 30 min at 37° C. with a cell-permeant indicator for reactive oxygen species that is nonfluorescent until the acetate groups are removed by intracellular esterases and oxidation occurs within the cell 5-(and-6)-carboxy-2′,7′-dichlorodihydrofluorescein diacetate (carboxy-H2DCFDA). The probes are prepared in PBS and incubated at the final concentration of 25 μM. After the incubation with the probe, cells are rinsed and incubated another 30 min with the oxidative solution containing AAPH at 750 μM in culture medium without phenol red and serum.
# (§3) The fluorescence is then measured with a fluorimeter with the following wavelength, […].
# (§4) Two different cell types have been tested with the inventive compounds. Human normal primary fibroblasts and HaCat cells which are a human keratinocyte cell line.
# [5] = system: HaCat cells; assay: Antioxidant properties on cell cultures (carboxy-H2DCFDA fluorescence, AAPH stress), keratinocytes; format: cell-based, human; conditions: compounds at 25 μM for 24 h, AAPH 750 μM
# Description: as §1, §2, §3, §4
# [6] = FIG. 1-9, copper alone 80 minutes
# [7] = FIG. 1-12, copper alone 120 minutes
smiles,measurement,setting,value
"COc1cc(/C=C/C(=O)c2ccccc2O)cc(OC)c1OC(C)(C)C(=O)O [Compound 5, 1-[2-hydroxyphenyl]-3-[3,5-dimethoxy-4-carboxydimethylmethyloxyphenyl]prop-2-en-1-one]",antioxidant properties on LDL oxidation by copper (in words),[1],antioxidant properties
"COc1cc(/C=C/C(=O)c2ccc(Cl)cc2O)cc(OC)c1OC(C)(C)C(=O)O [Compound 6, 1-[2-hydroxy-4-chlorophenyl]-3-[3,5-dimethoxy-4-carboxydimethylmethyloxyphenyl]prop-2-en-1-one]",antioxidant properties on LDL oxidation by copper (in words),[1],antioxidant properties
"Cc1cc(/C=C/C(=O)c2ccc(Cl)cc2O)cc(C)c1OC(C)(C)C(=O)O [Compound 7, 1-[2-hydroxy-4-chlorophenyl]-3-[3,5-dimethyl-4-carboxydimethylmethyloxyphenyl]prop-2-en-1-one]",induction factor (luminescent signal relative to untreated cells),[2]; 30 μM,50
same,cholesterol in lipoparticle subfraction (exclusion chromatography),[3]; gavage 200 mg/kg for 7 days,decreased
same,plasma concentration of cholesterol,[3]; gavage 200 mg/kg for 7 days,decrease
same,plasma concentration of triglycerides,[3]; gavage 200 mg/kg for 7 days,decrease
same,triglycerides in lipoparticle subfraction (exclusion chromatography),[3]; gavage 200 mg/kg for 7 days,decreased
same,antioxidant properties on LDL oxidation by copper (in words),[1],antioxidant properties
"Cc1cc(/C=C/C(=O)c2ccccc2O)cc(C)c1OC(C)(C)C(=O)O [Compound 11, 1-[2-hydroxyphenyl]-3-[3,5-dimethyl-4-carboxydimethylmethyloxyphenyl]prop-2-en-1-one]",induction factor (luminescent signal relative to untreated cells),[2]; 100 μM,10
"Cc1cc(/C=C/C(=O)c2ccc(Br)cc2O)cc(C)c1OC(C)(C)C(=O)O [Compound 25, 1-[2-hydroxy-4-bromophenyl]-3-[3,5-dimethyl-4-carboxydimethylmethyloxyphenyl]prop-2-en-1-one]",lag phase of conjugated diene formation,"[1]; FIG. 1-7, copper alone 82 minutes",120 min
same,maximum amount of conjugated dienes formed,"[1]; FIG. 1-8, copper alone 393",378 nmol per mg of LDL
"COc1ccccc1C(=O)/C=C/c1cc(C)c(OC(C)(C)C(=O)O)c(C)c1 [Compound 31, 1-[2-methoxyphenyl]-3-[3,5-dimethyl-4-carboxydimethylmethyloxyphenyl]prop-2-en-1-one]",induction factor (luminescent signal relative to untreated cells),[2]; 10 μM,15.5
same,lag phase of conjugated diene formation,[1]; [6],139 min
same,rate of conjugated diene formation,"[1]; FIG. 1-10, copper alone 1.9",1.6 nmol/min/mg of LDL
"Cc1cc(-c2cc(=O)c3ccc(Cl)cc3o2)cc(C)c1OC(C)(C)C(=O)O [Compound 35, 2-(3,5-dimethyl-4-carboxydimethylmethyloxyphenyl)-7-chloro-4H-1-benzopyran-4-one]",lag phase of conjugated diene formation,[1]; [6],149 min
same,rate of conjugated diene formation,"[1]; FIG. 1-10, copper alone 1.9",1.5 nmol/min/mg of LDL
"COc1cc(Cl)ccc1C(=O)/C=C/c1cc(C)c(OC(C)(C)C(=O)O)c(C)c1 [Compound 37, 1-[2-methyloxy-4-chlorophenyl]-3-[3,5-dimethyl-4-carboxydimethylmethyloxyphenyl]prop-2-en-1-one]",maximum induction factor,[2],27
same,lag phase of conjugated diene formation,[1]; [7],196 min
same,rate of conjugated diene formation,"[1]; FIG. 1-13, copper alone 1.8",1.49 nmol/min/mg of LDL
same,maximum amount of conjugated dienes formed,"[1]; FIG. 1-14, copper alone 372",338 nmol per mg of LDL
"CCCCCCCc1ccc(C(=O)/C=C/c2cc(C)c(OC(C)(C)C(=O)OC(C)(C)C)c(C)c2)cc1 [Compound 38, 1-[4-heptylphenyl]-3-[3,5-dimethyl-4-tertbutyloxycarbonyldimethylmethyloxyphenyl]prop-2-en-1-one]",maximum induction factor,[2],22
same,lag phase of conjugated diene formation,[1]; [7],284 min
same,rate of conjugated diene formation,"[1]; FIG. 1-13, copper alone 1.8",0.71 nmol/min/mg of LDL
same,maximum amount of conjugated dienes formed,"[1]; FIG. 1-14, copper alone 372",244 nmol per mg of LDL
"CCCCCCOc1ccccc1C(=O)/C=C/c1cc(C)c(OC(C)(C)C(=O)O)c(C)c1 [Compound 82, 1-[2-hexyloxyphenyl]-3-[3,5-dimethyl-4-carboxydimethylmethyloxyphenyl]prop-2-en-1-one]",plasma cholesterol,"[3]; 50 mg/kg/day for 7 or 8 days, FIGS. 4-13, 4-15, 4-17, 4-19",decrease
same,plasma triglycerides,"[3]; 50 mg/kg/day for 7 or 8 days, FIGS. 4-14, 4-16, 4-18, 4-20",decrease
"Cc1c(C)c2c(c(C)c1O)CCC(C)(C(=O)O)O2 (stereo not shown) [Trolox, reference compound]",% of oxidative reduction versus control cells,[4],60%
same,% of oxidative reduction versus control cells,[5],46%
